In ChEMBL document CHEMBL5365518, “Synthesis and Validation of the First Cell-Impermeable Hsp90α-Selective Inhibitors” (ACS Med Chem Lett, 2023):
Activity calls are given as the source filed them. No cut-off for these calls is given here.

Columns and labels:
[1] = target: RAC-alpha serine/threonine-protein kinase (Homo sapiens) (UniProt P31749); experiment: Inhibition of AKT phosphorylation in human OVCAR-8 cells assessed as reduction in pAKT level incubated for 24 hrs by Western blot analysis; type: cell-based; settings: dose 1-100 µM
Heat shock protein HSP90 = Heat shock protein HSP90 (Homo sapiens, UniProt P07900+P08238); experiment: Disruption of HSP90-mediated hERG channel maturation transfected in HEK293 cells assessed as appearance of fully glycosylated form at 100 uM incubated for 24 hrs by Western blot analysis; type: toxicity, cell-based; settings: hek293, 24 h
[2] = target: RAC-alpha serine/threonine-protein kinase (Homo sapiens) (UniProt P31749); experiment: Induction of AKT degradation in human OVCAR-8 cells at 1 to 100 uM incubated for 24 hrs by Western blot analysis; type: cell-based; settings: dose 1-100 µM
OVCAR-8 [3] = experiment: Antiproliferative activity against human OVCAR-8 cells assessed as inhibition of cell growth incubated for 72 hrs by MTS assay; type: functional, cell-based; settings: OVCAR-8, 72 h
OVCAR-8 [4] = experiment: Effect on TLR2 level in human OVCAR-8 cells at 1 to 100 uM incubated for 24 hrs by Western blot analysis; type: functional, cell-based; settings: dose 1-100 µM
[5] = Effective permeability of compound in PBS buffer at pH 7.4 incubated for 5 hrs by PAMPA assay; type: ADME; settings: read-out: Peff
Endoplasmin = Endoplasmin (Homo sapiens, UniProt P14625); experiment: Binding affinity to Grp94 (unknown origin) incubated for 24 hrs by fluorescence polarization assay
OVCAR-8 [6] = experiment: Effect on TGFbetaR level in human OVCAR-8 cells at 1 to 100 uM incubated for 24 hrs by Western blot analysis; type: functional, cell-based; settings: dose 1-100 µM
[7] = target: T1, Heat shock protein 75 kDa, mitochondrial (Homo sapiens, UniProt Q12931); experiment: Binding affinity to Trap1 (unknown origin) incubated for 24 hrs by fluorescence polarization assay
T1 sequence (Q12931 whole entry): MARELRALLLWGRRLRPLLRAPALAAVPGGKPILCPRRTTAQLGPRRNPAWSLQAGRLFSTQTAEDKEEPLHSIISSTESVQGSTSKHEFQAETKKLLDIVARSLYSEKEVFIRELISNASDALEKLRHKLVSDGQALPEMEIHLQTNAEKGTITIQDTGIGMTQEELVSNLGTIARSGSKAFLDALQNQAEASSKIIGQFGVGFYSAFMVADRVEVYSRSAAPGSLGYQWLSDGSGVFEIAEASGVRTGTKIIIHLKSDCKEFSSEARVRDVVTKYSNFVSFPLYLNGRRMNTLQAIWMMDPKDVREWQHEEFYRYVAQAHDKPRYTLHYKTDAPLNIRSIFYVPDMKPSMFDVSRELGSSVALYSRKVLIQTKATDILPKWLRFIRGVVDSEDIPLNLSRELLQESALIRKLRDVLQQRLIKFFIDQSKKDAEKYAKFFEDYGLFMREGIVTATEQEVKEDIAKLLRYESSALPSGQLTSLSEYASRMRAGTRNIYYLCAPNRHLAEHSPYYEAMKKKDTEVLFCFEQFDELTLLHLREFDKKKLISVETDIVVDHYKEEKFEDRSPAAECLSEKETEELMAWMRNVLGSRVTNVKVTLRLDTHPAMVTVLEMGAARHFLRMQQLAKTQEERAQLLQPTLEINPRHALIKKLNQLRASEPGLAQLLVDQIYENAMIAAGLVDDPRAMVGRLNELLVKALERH

[8] = target: Heat shock protein HSP 90-beta (Homo sapiens, UniProt P08238); experiment: Binding affinity HSP90beta (unknown origin) incubated for 24 hrs by fluorescence polarization assay
[9] = target: Heat shock protein HSP 90-alpha (Homo sapiens, UniProt P07900); experiment: Binding affinity HSP90alpha (unknown origin) incubated for 24 hrs by fluorescence polarization assay
OVCAR-8 [10] = experiment: Induction of heat shock response in human OVCAR-8 cells assessed as increase in HSP90 level at 1 to 100 uM incubated for 24 hrs by Western blot analysis; type: functional, cell-based; settings: dose 1-100 µM
[11] = Antiproliferative activity against human MCF-10A cells assessed as inhibition of cell growth incubated for 72 hrs by MTS assay; type: toxicity, cell-based
OVCAR-8 [12] = experiment: Effect on HER2 level in human OVCAR-8 cells at 1 to 100 uM incubated for 24 hrs by Western blot analysis; type: functional, cell-based; settings: dose 1-100 µM
[13] = Selectivity index, ratio of IC50 for binding affinity to HSP90beta (unknown origin) to IC50 for binding affinity to HSP90alpha (unknown origin)
OVCAR-8 [14] = experiment: Induction of heat shock response in human OVCAR-8 cells assessed as increase in HSP90 level at 100 nM incubated for 24 hrs by Western blot analysis; type: functional, cell-based
[15] = target: RAC-alpha serine/threonine-protein kinase (Homo sapiens) (UniProt P31749); experiment: Induction of AKT degradation in human OVCAR-8 cells incubated for 24 hrs by Western blot analysis; type: cell-based; settings: dose 1-100 µM

Sequence of Heat shock protein HSP 90-beta (P08238 whole entry): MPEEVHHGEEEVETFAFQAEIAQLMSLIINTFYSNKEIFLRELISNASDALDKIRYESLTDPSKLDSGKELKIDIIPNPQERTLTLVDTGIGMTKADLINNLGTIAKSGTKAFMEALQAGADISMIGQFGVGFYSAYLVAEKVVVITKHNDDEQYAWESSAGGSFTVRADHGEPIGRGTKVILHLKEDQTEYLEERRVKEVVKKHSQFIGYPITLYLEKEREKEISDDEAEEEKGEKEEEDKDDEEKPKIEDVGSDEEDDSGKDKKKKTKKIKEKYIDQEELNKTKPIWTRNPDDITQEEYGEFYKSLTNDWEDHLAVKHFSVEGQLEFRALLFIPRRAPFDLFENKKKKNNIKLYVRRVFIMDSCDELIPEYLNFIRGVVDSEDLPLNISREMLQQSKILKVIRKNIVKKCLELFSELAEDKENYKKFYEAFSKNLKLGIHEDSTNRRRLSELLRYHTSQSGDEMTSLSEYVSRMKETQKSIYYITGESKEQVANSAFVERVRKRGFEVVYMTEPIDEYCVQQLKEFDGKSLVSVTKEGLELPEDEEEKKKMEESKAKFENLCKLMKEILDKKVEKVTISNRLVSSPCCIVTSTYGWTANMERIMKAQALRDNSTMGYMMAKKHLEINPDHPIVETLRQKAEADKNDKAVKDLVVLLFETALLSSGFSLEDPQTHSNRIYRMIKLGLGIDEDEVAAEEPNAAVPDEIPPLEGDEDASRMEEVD
Sequence of Endoplasmin (P14625 whole entry): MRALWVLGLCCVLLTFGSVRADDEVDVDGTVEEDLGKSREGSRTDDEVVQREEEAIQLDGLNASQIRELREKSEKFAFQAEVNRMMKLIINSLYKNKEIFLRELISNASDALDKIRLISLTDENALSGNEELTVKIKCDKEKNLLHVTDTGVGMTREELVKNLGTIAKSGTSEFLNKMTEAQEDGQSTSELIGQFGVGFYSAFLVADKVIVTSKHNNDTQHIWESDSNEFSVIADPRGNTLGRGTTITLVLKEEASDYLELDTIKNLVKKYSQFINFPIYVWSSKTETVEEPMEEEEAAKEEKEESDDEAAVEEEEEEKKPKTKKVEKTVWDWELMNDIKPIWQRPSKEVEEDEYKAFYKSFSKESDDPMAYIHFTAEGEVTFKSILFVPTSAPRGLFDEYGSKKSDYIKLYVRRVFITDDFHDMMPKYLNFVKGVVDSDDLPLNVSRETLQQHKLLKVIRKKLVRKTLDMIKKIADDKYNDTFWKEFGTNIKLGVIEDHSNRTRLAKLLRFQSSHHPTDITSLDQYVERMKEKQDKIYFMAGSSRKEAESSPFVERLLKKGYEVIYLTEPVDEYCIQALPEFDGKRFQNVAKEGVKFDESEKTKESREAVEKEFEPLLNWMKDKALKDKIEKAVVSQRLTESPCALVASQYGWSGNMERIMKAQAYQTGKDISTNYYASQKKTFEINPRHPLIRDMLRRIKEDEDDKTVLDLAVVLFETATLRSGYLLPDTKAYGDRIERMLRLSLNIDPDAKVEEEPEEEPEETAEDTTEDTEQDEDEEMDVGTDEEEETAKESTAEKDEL
Sequence of RAC-alpha serine/threonine-protein kinase (Homo sapiens) (P31749 whole entry): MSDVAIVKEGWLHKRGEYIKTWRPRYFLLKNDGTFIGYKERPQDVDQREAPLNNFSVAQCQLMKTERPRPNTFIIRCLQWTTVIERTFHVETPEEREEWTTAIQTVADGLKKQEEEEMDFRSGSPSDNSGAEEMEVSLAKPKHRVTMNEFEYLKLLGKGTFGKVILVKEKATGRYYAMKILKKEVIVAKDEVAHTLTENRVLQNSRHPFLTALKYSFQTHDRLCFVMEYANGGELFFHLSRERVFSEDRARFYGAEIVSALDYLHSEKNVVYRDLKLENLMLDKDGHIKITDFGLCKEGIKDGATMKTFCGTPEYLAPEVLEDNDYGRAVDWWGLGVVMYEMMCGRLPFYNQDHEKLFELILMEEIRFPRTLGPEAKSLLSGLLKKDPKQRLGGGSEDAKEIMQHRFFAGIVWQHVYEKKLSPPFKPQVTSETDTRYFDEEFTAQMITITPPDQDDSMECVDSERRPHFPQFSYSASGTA

IC50 [8]	IC50 [9]	Ratio IC50 [13]	SMILES	Papp at 5 h [5]	other results
> 100 µM	> 100 µM		Cc1ccc(Sc2cc(C(=O)N3Cc4ccc(OCC[N+](C)(C)[O-])cc4C3)ccc2O)cc1C		
8.39 µM	0.36 µM	> 12	CC[N+](C)(C)CCOc1ccc2c(c1)CN(C(=O)c1ccc(O)c(Sc3ccc(C)c(C)c3)c1)C2		
> 100 µM	90.3 µM		Cc1ccc(Sc2cc(C(=O)N3Cc4ccc(OCCCC[N+](C)(C)[O-])cc4C3)ccc2O)cc1C		
> 100 µM	43.1 µM	> 2	Cc1ccc(Sc2cc(C(=O)N3Cc4ccc(OCCC[N+](C)(C)[O-])cc4C3)ccc2O)cc1C		
> 100 µM	7.36 µM	> 13	Cc1ccc(Sc2cc(C(=O)N3Cc4ccc(OCCCC[N+](C)(C)C)cc4C3)ccc2O)cc1C		
> 100 µM	7.94 µM	> 12	CC[N+](C)(C)CCCCOc1ccc2c(c1)CN(C(=O)c1ccc(O)c(Sc3ccc(C)c(C)c3)c1)C2		

More lines, now with the values behind:

SMILES	IC50 [8]	IC50 [9]	Ratio IC50 [13]	Papp at 5 h [5]	other results
Cc1ccc(Sc2cc(C(=O)N3Cc4ccc(OCCC[N+](C)(C)C)cc4C3)ccc2O)cc1C.O=C([O-])C(F)(F)F	> 100 µM	0.34 µM		0.644 ×10⁻⁶ cm/s	inhibition [1]: Dose-Dependent Effect; Activity (Heat shock protein HSP90): Active; Activity [2]: inactive; IC50 (OVCAR-8 [3]): > 100 µM; Activity (OVCAR-8 [4]): Active; IC50 (Endoplasmin): > 100 µM; Activity (OVCAR-8 [6]): Active; IC50 [7]: > 100 µM; Activity (OVCAR-8 [10]): inactive; IC50 at 72 h [11]: > 100 µM; Activity (OVCAR-8 [12]): Active
Cc1ccc(Sc2cc(C(=O)N3Cc4ccc(OCCN(C)C)cc4C3)ccc2O)cc1C	96.1 µM	0.85 µM			IC50 (OVCAR-8 [3]): 13.5 µM; IC50 (Endoplasmin): > 100 µM; IC50 [7]: > 100 µM; IC50 at 72 h [11]: 11.5 µM
Cc1ccc(Sc2cc(C(=O)N3Cc4ccc(OCC[N+](C)(C)Cc5ccccc5)cc4C3)ccc2O)cc1C	> 100 µM	0.96 µM	> 104		
CCNC(=O)c1noc(-c2cc(C(C)C)c(O)cc2O)c1-c1ccc(CN2CCOCC2)cc1					Activity (OVCAR-8 [14]): Active
Cn1c(=O)c2c(ncn2C)n(C)c1=O [CAFFEINE]				17.3 ×10⁻⁶ cm/s	
Cc1ccc(Sc2cc(C(=O)N3Cc4ccc(OCCCCN(C)C)cc4C3)ccc2O)cc1C	> 100 µM	0.79 µM	> 126		
CC[N+](C)(C)CCCOc1ccc2c(c1)CN(C(=O)c1ccc(O)c(Sc3ccc(C)c(C)c3)c1)C2.O=C([O-])C(F)(F)F	> 100 µM	> 100 µM		1.05 ×10⁻⁶ cm/s	
Cc1ccc(Sc2cc(C(=O)N3Cc4ccc(OCCCN(C)C)cc4C3)ccc2O)cc1C	> 100 µM	0.51 µM		2.99 ×10⁻⁶ cm/s	IC50 (OVCAR-8 [3]): 12.7 µM; IC50 (Endoplasmin): > 100 µM; Activity [15]: Dose-Dependent Effect; IC50 [7]: > 100 µM; Activity (OVCAR-8 [10]): Active; IC50 at 72 h [11]: 11.7 µM
Cc1ccc(Sc2cc(C(=O)N3Cc4ccc(OCCC[N+](C)(C)Cc5ccccc5)cc4C3)ccc2O)cc1C.O=C([O-])C(F)(F)F	> 100 µM	0.96 µM	> 104	3.74 ×10⁻⁶ cm/s	
Cc1ccc(Sc2cc(C(=O)N3Cc4ccc(OCC[N+](C)(C)C)cc4C3)ccc2O)cc1C.O=C([O-])C(F)(F)F	> 100 µM	0.65 µM		0.775 ×10⁻⁶ cm/s	IC50 (OVCAR-8 [3]): > 100 µM; IC50 (Endoplasmin): > 100 µM; IC50 [7]: > 100 µM; IC50 at 72 h [11]: > 100 µM
